Patent publication US20250255847A1, “[…]s: Novel Drugs for Triple Negative Breast Cancer” (SIMMARON RSEARCH INC, priority 2024, published 2025)

Biological target: T1, Y705P STAT3 and S727P STAT3 (Homo sapiens, UniProt P40763)
T1 construct: tissue Jackson Laboratories TM00096; host or cells: patient-derived TNBC tumour in NOD.Cg-Prkdcscid Il2rgtm1Wjl/SzJ mice
Experiment: IHC and immunoblot of phospho-STAT3 in PDX tumors
Format: in vivo, mouse
Conditions: tumor tissue; for expression of Y705PSTAT3 (IHC): p<0.0001 versus vehicle
Protocol: FIG. 15 illustrates an embodiment of the present invention and illustrates SIM 1 and 2 inhibited Y705P phosphorylation of STAT3 and the expressions of STAT3-dependent tumor supportive genes. (A) DAB immunostaining of Y705P STAT3 in tumor parenchyma of all three groups. (B) Quantitative analysis of Y705P STAT3-ir cells was performed by counting Y705P STAT3 cells in 15 different images, converting into a percent scale, and then plotting in a scatter histogram. On-way ANOVA followed by multiple comparison test indicated ****p<0.0001 versus control. (C) DAB immunostaining of S727P STAT3 followed by a (D) quantitative analysis of S727P STAT3-ir cells was performed in 15 different images and then plotted as a percent of total cells by a scatter histogram. On-way ANOVA represents no significance (NS) between groups. (E) Immunoblot analyses of Y705PSTAT3 (Rabbit […] antibody Cat #710093; Invitrogen), S727PSTAT3 (Mouse 1° antibody cat #MA5-15208; Invitrogen) followed by normalization with loading control β-actin (Mouse 1° antibody cat #MA1-744; Invitrogen). (F) A cDNA-based gene array of 66 STAT3-dependent tumor promoting genes were analyzed in TNBC tumors of vehicle-, SIM-1-, and SIM-2-treated mice. (G) A scatter plot summarized the gene array results. Based on the relative levels of expressions, gene levels were classified as low, moderate, and highly expressed. Results are confirmed after three different experiments.
Immunoblot assay. Immunoblot assay was performed as described before. Briefly, cell lysates were mixed with 5× Lamelli buffer, electrophoresed in 4-12% Tris-Glycine gel in tris-glycine SDS running buffer, transferred in a nitrocellulose membrane (P/N 926-31090; Li-Cor Biosciences, Lincoln, NE) in tris-glycine transfer buffer, incubated with appropriate primary antibodies overnight under shaking condition, labeled with IRDye700 and 800-tagged secondary antibodies for 2 hrs at room temperature in an orbital shaker, and then imaged in Odyssey Sa imager at 200 μm resolution.
Immunohistochemical (IHC) analyses. Tumor tissues were embedded in paraffin, cut at a thickness of 5 μm in Leica microtome, attached to a charged slide, dried in a dry bath at 37° C. for at least 48 hrs., and then progressed for IHC analysis. The IHC analysis was performed where, briefly, sections were deparaffinized by xylene and rehydrated by ethanol gradient (100%>70%>50%>20%; v/v) followed by complete rehydration by water. After that sections were blocked by Intercept® (TBS) Blocking Buffer (Licor Biosciences, Lincoln, NE) for 30 minutes, incubated with primary (1°) antibodies (Refer to Table 1) overnight at 4° C., washed with 1×TBST wash buffer for 3 times, incubated with biotinylated anti-mouse (1:200 dilution) or anti-rabbit (1:200 dilution) secondary (2°) antibodies (ThermoFisher), for 2 hrs., reacted with VECTASTAIN® Elite® ABC-HRP Kit, Peroxidase (Cat #PK-6100; Vector Laboratories) for 1 hr. as per manufacturer's recommendation, and finally stained with DAB chromogenic solution (Cat #SK-4100; Vector Laboratories).
This example provides a representative experiment that tested if SIM-1 and SIM-2 suppressed the activation of STAT3 in TNBC tumors. […] The result was further corroborated by the quantitative analysis (FIG. 15B), which indicated a significant downregulation of Y705PSTST3-ir cells (One-way ANOVA indicated ****p<0.0001 versus vehicle).
On the contrary, the expression of S727PSTAT3, another active isomer of STAT3, remained very low and unchanged across the treatment groups (FIG. 15C).
These genes include anti-apoptotic genes such as bcl-2, survivin, and bcl-xl; cell cycle progression markers such as cyclin D1, akt, and p21.

T1 sequence (P40763 2-770 Y705P/S727P limits assumed): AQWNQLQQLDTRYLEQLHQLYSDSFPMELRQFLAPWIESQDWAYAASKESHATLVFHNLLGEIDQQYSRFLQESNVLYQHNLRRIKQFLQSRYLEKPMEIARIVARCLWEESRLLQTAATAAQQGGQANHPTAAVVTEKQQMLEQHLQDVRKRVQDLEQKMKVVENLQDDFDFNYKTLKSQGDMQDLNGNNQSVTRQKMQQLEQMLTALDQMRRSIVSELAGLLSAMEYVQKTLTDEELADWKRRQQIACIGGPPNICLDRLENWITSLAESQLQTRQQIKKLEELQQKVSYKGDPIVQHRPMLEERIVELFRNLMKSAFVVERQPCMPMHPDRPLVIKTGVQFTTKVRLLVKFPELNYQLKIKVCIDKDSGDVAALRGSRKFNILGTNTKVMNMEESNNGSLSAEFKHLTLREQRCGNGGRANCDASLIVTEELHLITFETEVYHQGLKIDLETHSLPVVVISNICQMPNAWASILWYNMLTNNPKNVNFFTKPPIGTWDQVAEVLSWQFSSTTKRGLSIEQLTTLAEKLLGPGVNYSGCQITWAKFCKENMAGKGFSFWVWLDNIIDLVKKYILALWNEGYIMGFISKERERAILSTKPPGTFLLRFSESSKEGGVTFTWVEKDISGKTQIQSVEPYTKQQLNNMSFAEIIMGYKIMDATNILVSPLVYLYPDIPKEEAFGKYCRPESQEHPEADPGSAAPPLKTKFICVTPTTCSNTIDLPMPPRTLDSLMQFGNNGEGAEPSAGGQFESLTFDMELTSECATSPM

Structure (SMILES)	S727P STAT3 expressions (IHC)	Y705 phosphorylation of STAT3 (immunoblot)	expression of Y705PSTAT3 (IHC)
CCOC(=O)c1c(NC(C)=O)sc2c(Cl)c(/C=N/O)ccc12 [SIM-2, ethyl 2-acetamido-7-chloro-6-(hydroxyiminomethyl)-1-benzothiophene-3-carboxylate]	did not show any change	strongly and selectively suppressed	completely ameliorated
O=C(O)CCC(=O)NCc1csc2ccc(Cl)cc12 [SIM-1, 4-[(5-chloro-1-benzothiophen-3-yl)methylamino]-4-oxobutanoic acid]	did not show any change	strongly and selectively suppressed	significantly suppressed
